Source: patent US20220362396A1, “AMINO-PYRAZINECARBOXAMIDE COMPOUNDS, CONJUGATES, AND USES THEREOF” (Silverback Therapeutics, Inc., priority 2018, published 2022)

Assays:
[1] = system: TGFβ/SMAD Signaling Pathway SBE reporter cell line; assay: TGFβ reporter assay, in vitro small molecule screening (luciferase); type: cell-based; details: TGFβ stimulation, luminescence
Procedure: TGFβ/SMAD Signaling Pathway SBE reporter cell line was obtained from BPS Bioscience. Cells were passed, expanded, and stored in liquid nitrogen as per the supplier's instructions with the exception that growth media is changed to DMEM-C with Geneticin (DMEM supplemented with 10% fetal bovine serum, 1×NEAA, 1 mM Pyruvate, 2 mM glutamine, 50 μg/mL penicillin, 50 U/mL streptomycin and 400 μg/mL of Geneticin). The assay media was MEM supplemented with 0.5% fetal bovine serum, 1×NEAA, 1 mM Pyruvate, 50 μg/mL penicillin and 50 U/mL streptomycin.
Test samples (at desired concentrations diluted in assay media) were added to a 96-well assay plate, 20 μL per well. Reporter cells were harvested from the tissue culture flasks by incubation in small quantity of PBS at 37° C. for two minutes after the media in the flask is removed and cells rinsed with PBS. Cells were counted and diluted in the assay media at approximately 0.5×10^6 cells/mL and then 80 μL/well of cells were added to the assay plate containing the 20 μL/well of test samples (or media only), and incubated for approximately 5-6 hours at 37° C. in a 5% CO2 humidified incubator. After that time, 15 μL of TGFβ diluted to 12 ng/mL in the assay media was added to the plate. Controls included TGFβ titration (from 50 to 0 ng/mL) without inhibitors, and media only (without cells, inhibitor or TGFβ). Plates were incubated at 37° C. in a 5% CO2 humidified incubator for 18 h. Luciferase substrate solution is subsequently added at 100 μL per well, incubated in the dark at room temperature for 15 min, and luminescence is measured using a luminometer. EC50 values and curve fits were obtained using Prism (GraphPad Software).

TGFBR2 = target: T1, TGFBR2 (Homo sapiens, UniProt P37173); assay: TGFBR2 RBC assay (enzyme inhibition assay, Reaction Biology Corp.); type: biochemical
T1 construct: purchased Reaction Biology Corp
Procedure: Compounds of the disclosure were also assayed by Reaction Biology Corp. using the TGFBR2 RBC assay (enzyme inhibition assay). […] NT refers to not tested.

T1 sequence (P37173 23-567): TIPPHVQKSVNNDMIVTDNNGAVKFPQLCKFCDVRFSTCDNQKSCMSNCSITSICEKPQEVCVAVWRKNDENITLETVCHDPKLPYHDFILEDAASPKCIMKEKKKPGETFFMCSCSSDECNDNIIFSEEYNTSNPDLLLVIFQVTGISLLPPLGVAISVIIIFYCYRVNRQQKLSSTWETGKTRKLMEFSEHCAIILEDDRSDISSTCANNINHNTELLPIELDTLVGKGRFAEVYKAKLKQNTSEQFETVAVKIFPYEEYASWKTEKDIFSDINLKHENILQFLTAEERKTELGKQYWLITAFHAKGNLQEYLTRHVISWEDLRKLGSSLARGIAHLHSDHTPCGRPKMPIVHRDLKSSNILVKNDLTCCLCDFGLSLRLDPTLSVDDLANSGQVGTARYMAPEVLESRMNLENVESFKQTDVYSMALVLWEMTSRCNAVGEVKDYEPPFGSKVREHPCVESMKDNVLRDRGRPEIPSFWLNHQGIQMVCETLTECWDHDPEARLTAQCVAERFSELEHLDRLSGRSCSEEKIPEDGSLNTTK

Row | SMILES | EC50 [1] | IC50 (TGFBR2)
1 | Nc1ncc(-c2ccc(OCC[C@H](NC(=O)OCc3ccccc3)C(=O)O)cc2)nc1C(=O)Nc1cnccc1N1CCOCC1 [Compound 265] | > 1000 nM | < 50 nM
2 | CCc1nccn1-c1ccncc1NC(=O)c1nc(-c2ccc(CCNC(=O)OCc3ccccc3)cc2)cnc1N [Compound 141] | > 1000 nM | < 50 nM
3 | COc1ccc(-c2ccncc2NC(=O)c2nc(-c3ccc(CCNC(=O)OCc4ccccc4)cc3)cnc2N)cc1 [Compound 14] | > 1000 nM | > 1000 nM
4 | NCCCc1ccc(-c2cnc(N)c(C(=O)Nc3cnccc3N3CCOCC3)n2)cc1 [Compound 2.1, 3-Amino-6-(4-(3-aminopropyl)phenyl)-N-(4-morpholinopyridin-3-yl)pyrazine-2-carboxamide] | 50 to 100 nM | < 50 nM
5 | COc1ccc(-c2cnc(N)c(C(=O)Nc3cnccc3N3CCOCC3)n2)cc1OC [Compound 158] | 100 to 1000 nM | < 50 nM
6 | Nc1ccc(-c2ccncc2NC(=O)c2nc(-c3ccc(CCNC(=O)OCc4ccccc4)cc3)cnc2N)cn1 [Compound 43] | 100 to 1000 nM | < 50 nM
7 | COc1cc(CCN)ccc1-c1cnc(N)c(C(=O)Nc2cnccc2N2CCOCC2)n1 [Compound 56] | 50 to 100 nM | 50 to 100 nM
8 | Nc1ncc(-c2ccc(N[C@@H]3CCNC3)cc2)nc1C(=O)Nc1cnccc1N1CCOCC1 [Compound 281] | 100 to 1000 nM | –
9 | CN(CC#N)c1ccncc1NC(=O)c1nc(-c2ccc(CCNC(=O)OCc3ccccc3)cc2)cnc1N [Compound 113] | > 1000 nM | > 1000 nM
10 | COCCN(C)c1ccncc1NC(=O)c1nc(-c2ccc(CCNC(=O)OCc3ccccc3)cc2)cnc1N [Compound 101] | 100 to 1000 nM | 50 to 100 nM
11 | Nc1ncc(-c2ccc(N3CCC[C@H](N)C3)cc2)nc1C(=O)Nc1cnccc1N1CCOCC1 [Compound 285] | 50 to 100 nM | –
12 | Cc1cc(-c2ccncc2NC(=O)c2nc(-c3ccc(CCNC(=O)OCc4ccccc4)cc3)cnc2N)ccn1 [Compound 17] | 100 to 1000 nM | 100 to 1000 nM
13 | NCCc1ccc(-c2cnc(N)c(C(=O)Nc3cnccc3NCC(N)=O)n2)cc1 [Compound 104] | > 1000 nM | > 1000 nM
14 | Nc1ncc(-c2cc(Cl)ccc2Cl)nc1C(=O)Nc1cnccc1N1CCOCC1 [Compound 161] | 100 to 1000 nM | 100 to 1000 nM
15 | Nc1ncc(-c2c(Cl)cccc2Cl)nc1C(=O)Nc1cnccc1N1CCOCC1 [Compound 173] | 100 to 1000 nM | > 1000 nM
16 | Nc1ncc(N2CCC3(CCNCC3)C2)nc1C(=O)Nc1cnccc1N1CCOCC1 [Compound 114] | > 1000 nM | > 1000 nM
17 | CC(CN)Oc1ccc(-c2cnc(N)c(C(=O)Nc3cnccc3N3CCCOCCC3)n2)cc1 (stereo not drawn) [Compound 261] | > 1000 nM | > 1000 nM
18 | CC(C)(C)OC(=O)N1CCN(c2cnc(N)c(C(=O)Nc3cnccc3N3CCOCC3)n2)CC1 [Compound 115] | > 1000 nM | > 1000 nM
19 | COC(=O)[C@H](CCOc1ccc(-c2cnc(N)c(C(=O)Nc3cnccc3N3CCOCC3)n2)cc1)NC(=O)OCc1ccccc1 [Compound 264] | > 1000 nM | < 50 nM
20 | Nc1ncc(-c2cccc(CCNC(=O)OCc3ccccc3)c2)nc1C(=O)Nc1cnccc1N1CCOCC1 [Compound 177] | 100 to 1000 nM | 50 to 100 nM

Row | SMILES | EC50 [1] | IC50 (TGFBR2)
21 | Nc1ncc(Cc2ccccc2)nc1C(=O)Nc1cnccc1N1CCOCC1 [Compound 186] | > 1000 nM | > 1000 nM
22 | CC(C)(C)OC(=O)N1CCN(C(=O)c2ccc(-c3cnc(N)c(C(=O)Nc4cnccc4N4CCOCC4)n3)cc2)CC1 [Compound 81] | 50 to 100 nM | 100 to 1000 nM
23 | Nc1ncc(-c2ccc3c(c2)CC(N)C3)nc1C(=O)Nc1cnccc1N1CCOCC1 (stereo not drawn) [Compound 213] | 50 to 100 nM | < 50 nM
24 | Nc1ncc(-c2ccc(CCNC(=O)OCc3ccccc3)cc2)nc1C(=O)Nc1cnccc1-c1ccncn1 [Compound 49] | > 1000 nM | > 1000 nM
25 | NCc1cccc(-c2cnc(N)c(C(=O)Nc3cnccc3N3CCOCC3)n2)c1 [Compound 175] | 100 to 1000 nM | 100 to 1000 nM
26 | Nc1ncc(-c2ccc(CCNC(=O)OCc3ccccc3)cc2)nc1C(=O)Nc1cnccc1-n1ccnc1-c1ccccc1 [Compound 146] | – | 100 to 1000 nM
27 | Nc1ncc(-c2ccc(N3CCN(CCO)CC3)cc2)nc1C(=O)Nc1cnccc1N1CCOCC1 [Compound 289] | 50 to 100 nM | –
28 | Nc1ncc(-c2ccc(N3CCC[C@@H](N)C3)cc2)nc1C(=O)Nc1cnccc1N1CCOCC1 [Compound 283] | 100 to 1000 nM | –
29 | CC(CNC(=O)CCC(C)(C)S)Oc1ccc(-c2cnc(N)c(C(=O)Nc3cnccc3N3CCOCC3)n2)cc1 (stereo not drawn) [Compound 288] | 100 to 1000 nM | –
30 | CN(c1ccc(-c2cnc(N)c(C(=O)Nc3cnccc3N3CCOCC3)n2)cc1)[C@@H]1CCN(C(=O)OC(C)(C)C)C1 [Compound 300] | 100 to 1000 nM | –
31 | N#Cc1ncccc1-c1ccncc1NC(=O)c1nc(-c2ccc(CCNC(=O)OCc3ccccc3)cc2)cnc1N [Compound 13] | > 1000 nM | –
32 | C[C@H](C(=O)O)N(C)c1ccc(-c2cnc(N)c(C(=O)Nc3cnccc3N3CCOCC3)n2)cc1 [Compound 295] | 100 to 1000 nM | –
33 | NCCc1ccc(-c2cnc(N)c(C(=O)Nc3cnccc3N3CCOCC3CO)n2)cc1 (stereo not drawn) [Compound 8] | 100 to 1000 nM | –
34 | COCCNc1ccncc1NC(=O)c1nc(-c2ccc(CCNC(=O)OCc3ccccc3)cc2)cnc1N [Compound 99] | > 1000 nM | –
35 | N#Cc1cnccc1-c1ccncc1NC(=O)c1nc(-c2ccc(CCNC(=O)OCc3ccccc3)cc2)cnc1N [Compound 9] | 100 to 1000 nM | –
36 | Nc1ncc(-c2ccc(CCNC(=O)[C@H](CCC(=O)O)NC(=O)OCc3ccccc3)cc2)nc1C(=O)Nc1cnccc1N1CCOCC1 [Compound 11] | > 1000 nM | –
37 | NCCN(CCO)c1ccc(-c2cnc(N)c(C(=O)Nc3cnccc3N3CCOCC3)n2)cc1 [Compound 292] | 100 to 1000 nM | –
38 | C[C@H](CO)N(C)c1ccc(-c2cnc(N)c(C(=O)Nc3cnccc3N3CCOCC3)n2)cc1 [Compound 296] | < 50 nM | –
39 | NCCc1ccc(-c2cnc(N)c(C(=O)Nc3cnccc3-n3ccnc3-c3ccccc3)n2)cc1 [Compound 145] | – | 100 to 1000 nM
40 | Nc1ncc(-c2ccc(OCCNC(=O)OCc3ccccc3)cc2)nc1C(=O)Nc1cnccc1N1CCOCC1 [Compound 45] | – | < 50 nM

Row | SMILES | EC50 [1] | IC50 (TGFBR2)
41 | CC(C)(C)OC(=O)N[C@@H](CCCCN)C(=O)NCCc1ccc(-c2cnc(N)c(C(=O)Nc3cnccc3N3CCOCC3)n2)cc1 [Compound 12] | 100 to 1000 nM | –
42 | CC(S)CCC(=O)NCC(C)Oc1ccc(-c2cnc(N)c(C(=O)Nc3cnccc3N3CCOCC3)n2)cc1 (stereo not drawn) [Compound 287] | 100 to 1000 nM | –
43 | Nc1ncc(-c2ccc(N(CCO)CCNC(=O)OCc3ccccc3)cc2)nc1C(=O)Nc1cnccc1N1CCOCC1 [Compound 293] | 100 to 1000 nM | –
44 | COC(=O)[C@H](C)N(C)c1ccc(-c2cnc(N)c(C(=O)Nc3cnccc3N3CCOCC3)n2)cc1 [Compound 297] | 100 to 1000 nM | –
45 | CN(c1ccc(-c2cnc(N)c(C(=O)Nc3cnccc3N3CCOCC3)n2)cc1)C1CCN(C(=O)OC(C)(C)C)CC1 [Compound 291] | 100 to 1000 nM | –
46 | C[C@@H](C(=O)O)N(C)c1ccc(-c2cnc(N)c(C(=O)Nc3cnccc3N3CCOCC3)n2)cc1 [Compound 298] | 100 to 1000 nM | –
47 | CC(=O)c1ccc(C(=O)NCCc2ccc(-c3cnc(N)c(C(=O)Nc4cnccc4N4CCOCC4)n3)cc2)cc1 [Compound 58] | 100 to 1000 nM | –
48 | COC(=O)[C@@H](C)N(C)c1ccc(-c2cnc(N)c(C(=O)Nc3cnccc3N3CCOCC3)n2)cc1 [Compound 294] | 100 to 1000 nM | –
49 | CC(C)(C)OC(=O)N1CC[C@@H](Nc2ccc(-c3cnc(N)c(C(=O)Nc4cnccc4N4CCOCC4)n3)cc2)C1 [Compound 282] | 100 to 1000 nM | –
50 | NCCc1ccc(-c2cnc(N)c(C(=O)Nc3cncc(-c4ccccc4[N+](=O)[O-])c3)n2)cc1 [Compound 147] | – | 50 to 100 nM
51 | CN(c1ccc(-c2cnc(N)c(C(=O)Nc3cnccc3N3CCOCC3)n2)cc1)C1CCNCC1 [Compound 301] | 50 to 100 nM | –
52 | N#Cc1cnccc1-c1ccncc1NC(=O)c1nc(-c2ccc(CCNC(=O)OCc3ccccc3)cc2)cnc1N [Compound 10] | > 1000 nM | –
53 | Nc1ncc(-c2ccc([C@@H]3CNC[C@H]3C(=O)O)cc2)nc1C(=O)Nc1cnccc1N1CCOCC1 [Compound 231] | > 1000 nM | –
54 | CC(C)(C)OC(=O)N[C@@H]1CCCN(c2ccc(-c3cnc(N)c(C(=O)Nc4cnccc4N4CCOCC4)n3)cc2)C1 [Compound 284] | 100 to 1000 nM | –
55 | CN(C)C1CCN(c2ccc(-c3cnc(N)c(C(=O)Nc4cnccc4N4CCOCC4)n3)cc2)CC1 [Compound 290] | < 50 nM | –
56 | Cc1cc(CNC(=O)OCc2ccccc2)ccc1-c1cnc(N)c(C(=O)Nc2cnccc2N2CCOCC2)n1 [Compound 60] | 100 to 1000 nM | –
57 | COCCNc1ccncc1NC(=O)c1nc(-c2ccc(CCN)cc2)cnc1N [Compound 100] | > 1000 nM | –
58 | CC(C)(C)OC(=O)N[C@H]1CCCN(c2ccc(-c3cnc(N)c(C(=O)Nc4cnccc4N4CCOCC4)n3)cc2)C1 [Compound 286] | 100 to 1000 nM | –
